Assay results from patent publication US20210220328A1, “PYRROLE DERIVATIVES AS ACC INHIBITORS” (Almirall, S.A., priority 2017, published 2021).

Legend:
[1] = system: sebocytes; settings: Hunt D. et al. J Invest Dermatol. 2017; cited from earlier work
[2] = system: sebaceous gland activity; settings: Hunt D. et al. J Invest Dermatol. 2017; cited from earlier work
[3] = system: immortalized human sebocyte cell line, SZ95; assay: In vitro assay of inhibition of lipid synthesis; format: cell-based; settings: 48 h, SZ95 sebocytes
In short: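 Human SZ95 sebocytes were preincubated with compound for 30 min, then stimulated with 75 μM arachidonic acid for 48 h at 37 °C. Neutral lipids were stained with AdipoRed and read by fluorescence (ex 485/em 535). % inhibition was normalized between AA-stimulated and unstimulated cells.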

[4] = lipid synthesis induced by 75 μM arachidonic acid, AdipoRed fluorescence, Table 1
[5] = 75 μM arachidonic acid, AdipoRed, Table 2, finer classes for compounds with IC50 less than 250 nM

CCCCCCCCCCCCCCOc1ccc(C(=O)OCC(=O)N(C)CC(=O)OCC)o1 [Olumacostat Glasaretil]
potency inhibiting sebum production by sebocytes [1]: low potency | activity in an in vivo model of sebaceous gland activity [2]: poor activity

CCCCCCCCCCCCCc1c[nH]c(C(=O)OC(C)(C)C)c1F [Example 24, Tert-butyl 3-fluoro-4-tridecyl-1H-pyrrole-2-carboxylate]
IC50 [3, 4]: 250 to 1000 nM

CCCCCCCCCCCCc1c[nH]c(C(=O)OCCCCCCCCCO)c1Cl [Example 59, 9-Hydroxynonyl 3-chloro-4-dodecyl-1H-pyrrole-2-carboxylate]
IC50 [3, 4]: 250 to 1000 nM

CCCCCCCCCCCCCCCc1cc(F)c(C(=O)O)[nH]1 [Example 122, 3-Fluoro-5-pentadecyl-1H-pyrrole-2-carboxylic acid]
IC50 [3, 5]: 50 to 100 nM | IC50 [3, 4]: < 250 nM

CCCCCCCCCCCCCCCCCCCc1cc(F)c(C(=O)O)[nH]1 [Example 126, 3-Fluoro-5-nonadecyl-1H-pyrrole-2-carboxylic acid]
IC50 [3, 4]: < 250 nM

CCCCCCCCCCCCCc1cc(Cl)c(C(=O)O)[nH]1 [Example 66, 3-Chloro-5-tridecyl-1H-pyrrole-2-carboxylic acid]
IC50 [3, 5]: 100 to 250 nM | IC50 [3, 4]: < 250 nM

CCCCCCCCCCCCOc1c[nH]c(C(=O)OC(C)OC(=O)OCCOCCOCC)c1Cl (stereo not drawn) [Example 86, 4-Oxo-3,5,8,11-tetraoxatridecan-2-yl 3-chloro-4-(dodecyloxy)-1H-pyrrole-2-carboxylate]
IC50 [3, 5]: < 50 nM | IC50 [3, 4]: < 250 nM

CCCCCCCCCCCCOc1c[nH]c(C(=O)OCCOCCOCC)c1Cl [Example 83, 2-(2-Ethoxyethoxy)ethyl 3-chloro-4-(dodecyloxy)-1H-pyrrole-2-carboxylate]
IC50 [3, 4]: 250 to 1000 nM

CCCCCCCCCCCCOc1c[nH]c(C(=O)OCCN2C(=O)CCC2=O)c1 [Example 3, 2-(2,5-Dioxopyrrolidin-1-yl)ethyl 4-(dodecyloxy)-1H-pyrrole-2-carboxylate]
IC50 [3, 4]: 1000 to 5000 nM

CCCCCCCCCC(C)(C)CCc1c[nH]c(C(=O)O)c1F [Example 95, 4-(3,3-Dimethyldodecyl)-3-fluoro-1H-pyrrole-2-carboxylic acid]
IC50 [3, 5]: < 50 nM | IC50 [3, 4]: < 250 nM

CCCCCCCCCCCCOc1c[nH]c(C(=O)OCC(O)CO)c1Cl (stereo not drawn) [Example 84, 2,3-Dihydroxypropyl 3-chloro-4-(dodecyloxy)-1H-pyrrole-2-carboxylate]
IC50 [3, 5]: 100 to 250 nM | IC50 [3, 4]: < 250 nM

CCCCCCCCCCCCCc1c[nH]c(C(=O)OCC(F)(F)F)c1F [Example 27, 2,2,2-Trifluoroethyl 3-fluoro-4-tridecyl-1H-pyrrole-2-carboxylate]
IC50 [3, 5]: < 50 nM | IC50 [3, 4]: < 250 nM

CCCCCCCCCCCC(F)Cc1c[nH]c(C(=O)O)c1F (stereo not drawn) [Example 93, 3-Fluoro-4-(2-fluorotridecyl)-1H-pyrrole-2-carboxylic acid]
IC50 [3, 5]: < 50 nM | IC50 [3, 4]: < 250 nM

CCCCCCCCCCCCc1c[nH]c(C(=O)OCC(F)(F)F)c1F [Example 15, 2,2,2-Trifluoroethyl 4-dodecyl-3-fluoro-1H-pyrrole-2-carboxylate]
IC50 [3, 5]: < 50 nM | IC50 [3, 4]: < 250 nM

CCCCCCCCCCCCCc1c[nH]c(C(=O)OC(C)OC(=O)OCCOC)c1Cl (stereo not drawn) [Example 111, 1-(((2-methoxyethoxy)carbonyl)oxy)ethyl 3-chloro-4-tridecyl-1H-pyrrole-2-carboxylate]
IC50 [3, 5]: 100 to 250 nM | IC50 [3, 4]: < 250 nM

CCCCCCCCCCCCCc1cn(CCCC)c(C(=O)O)c1F [Example 69, 1-Butyl-3-fluoro-4-tridecyl-1H-pyrrole-2-carboxylic acid]
IC50 [3, 4]: 1000 to 5000 nM

CCCCCCCCCCCCCCc1cc(Cl)c(C(=O)O)[nH]1 [Example 67, 3-Chloro-5-tetradecyl-1H-pyrrole-2-carboxylic acid]
IC50 [3, 4]: 250 to 1000 nM
